Data as given in patent publication US6376541B1, “Upregulation of endogenous prostaglandins to lower intraocular pressure” (Alcon Manufacturing, Ltd., priority 1998, dated 2002).
Like-named read-outs stand apart in the source and are kept apart here. Values belong to the compound of their own block, whether it stands above or below them.

Assays:
[1] = test system: cultured trabecular-meshwork cells; settings: cited from earlier work
[2] = test system: human trabecular meshwork cells; experiment: Induction of PGE2 synthesis in cultured human trabecular meshwork cells (14C-arachidonic acid, TLC); type: cell-based; settings: 10 ng/ml each; for % of total CPM in PGE2 fraction (mean ± std dev): 17 hours then 14C-arachidonic acid for 4 hours
Protocol: Primary human trabecular meshwork cells were grown in culture according to the method of Weinreb, et al. from a donor. Cells (passage 5) were seeded into 12-well plates and grown until they just reached confluency, with culture medium replacement every 3-4 days. Triplicate wells of cells were then exposed to interleukin-1 beta (10 ng/ml final), TGF-beta 1 (10 ng/ml final) or both in 1 ml of Ham's F-10 Nutrient Mixture (Gibco-BRL), containing 2 mM L-glutamine and 0.4 mg/ml bovine serum albumin (Sigma Chemical Co.). Control cells received medium devoid of IL-1β and TGF-β1. Cells were then incubated in a 37° C., 5% CO2, humidified incubator for 17 hours. ^14C-arachidonic acid (300,000 dpm) was added to each well, and the cells were returned to the incubator for an additional 4 hours. A modified Bligh & Dyer lipid extraction [Can. J. Biochem. Physiol. 37,911 (1959)] was then performed on the cells and supernatants. An aliquot of the extracted samples and fatty acid standards were spotted on a moderate hardness silica gel thin-layer chromatography plate (Alltech K5, 20×20 cm, 250 μm thick). The plate was developed in prostaglandin TLC solvent (11:5:2:10 ethyl acetate: 2,2,4-trimethylpentane: acetic acid: distilled water), air-dried, and standard bands were visualized with vaporization of iodine crystals. Each lane on the plate was divided into segments based upon the position of the standards, and each segment was scraped off of the plate with a razor blade into a glass scintillation vial. Opti-fluor scintillation cocktail (Packard) was added to each vial, and the samples were counted on a beta scintillation counter. The amount of each fraction was calculated as a percentage of total counts per minute (CPM) from that sample.

[3] = test system: human corneal fibroblasts; experiment: Induction of prostaglandin synthesis in cultured human corneal fibroblasts (enzyme immunoassay of conditioned medium); type: cell-based; settings: 10 ng/ml
Protocol: Primary human corneal fibroblasts were grown in culture from freshly denuded corneal stromal tissue from a donor. Cells (passage 4) were seeded into 12-well plates and grown to 80% confluency. Selected cells were then exposed to Interleukin-1 alpha (10 ng/ml final) in Ham's F-10 Nutrient mixture (HyClone Corporation) containing 10% fetal bovine serum by medium replacement in the wells. Control cells received medium devoid of this inflammatory cytokine. Cells were then incubated in a 37° C., 5% CO2, humidified incubator for 24 hours. Conditioned medium was then removed, centrifuged to remove any cellular debris (3 minutes at 2600 rpm and 4° C.), and analyzed for PGE2 and PGF2α, levels in the medium using specific enzyme immunoassay kits (Cayman Scientific). Cells in each well were counted, and prostaglandin levels normalized to the cell count for the respective wells.

fibroblasts = settings: cited from earlier work
[4] = 24 hours, conditioned medium, normalized to cell count

Compound: CCCCC/C=C\C\C=C/C=C/C=C/[C@@H](SC[C@H](NC(=O)CC[C@H](N)C(=O)O)C(=O)NCC(=O)O)[C@@H](O)CCCC(=O)O [leukotriene C4]
effect on PGE2 synthesis [1]: stimulate PGE2 synthesis

Compound: CNc1ccc2oc(C[C@H]3O[C@@]4(CC[C@H]3C)O[C@H]([C@H](C)C(=O)c3ccc[nH]3)[C@H](C)C[C@H]4C)nc2c1C(=O)O [lonophore A23187]
effect on PGE2 synthesis [1]: stimulate PGE2 synthesis

Compound: NCCc1c[nH]cn1 [histamine]
effect on PGE2 synthesis [1]: stimulate PGE2 synthesis

Compound: IL-1β: interleukin-1 beta, prostaglandin upregulating agent (Genzyme)
increase in PGE2 synthesis over non-treated control [2]: 440%
% of total CPM in PGE2 fraction (mean ± std dev) [2]: 9.34 ± 0.70%

elevation of the level of PGE2 ([3]; versus unstimulated cells): > 47 fold
elevation of the level of PGF2α ([3]; versus unstimulated cells): > 3 fold
Compound: INTERLEUKIN-1α: inflammatory cytokine Interleukin-1 alpha
PGE2 produced per 100,000 cells in 24 hours (mean ± std dev) [3, 4]: 48,736 ± 3597 PICOGRAMS
PGF2α produced per 100,000 cells in 24 hours (mean ± std dev) [3, 4]: 1704 ± 367 PICOGRAMS

Compound: CCCCC/C=C\C/C=C\C/C=C\C/C=C\CCCC(=O)O [arachidonic acid]
effect on PGE2 synthesis [1]: stimulate PGE2 synthesis

Compound: TGF-β1: Transforming Growth Factor beta 1, prostaglandin upregulating agent
increase in PGE2 synthesis over non-treated control [2]: 74%
% of total CPM in PGE2 fraction (mean ± std dev) [2]: 3.01 ± 0.38%

Compound: PDGF
stimulation of PGE2 synthesis (fibroblasts): 10-15 fold
stimulation of PGE2 synthesis (fibroblasts; in the presence of exogenous arachidonic acid): 28 fold
